This note sets out measurements from ChEMBL document CHEMBL1133608 (J Med Chem, 2000).

In assay [1] the target is T1, D(2) dopamine receptor (Rattus norvegicus, UniProt P61169, S194A). Nature of the assay: In vitro affinity at mutant D2 receptor (S194A) in C6 (glioma) cell membranes. It counts as cell-based.
Assay [2] concerns the target T2, D(2) dopamine receptor (Rattus norvegicus, UniProt P61169, S197A). Nature of the assay: In vitro affinity at mutant D2 receptor (S197A) in C6 (glioma) cell membranes. It counts as cell-based.
The target in assay [3] is D(2) dopamine receptor (Rattus norvegicus, UniProt P61169, S193A). Nature of the assay: In vitro affinity at mutant D2 receptor (S193A) in C6 (glioma) cell membranes. It is filed as cell-based.
Chain of D(2) dopamine receptor (Rattus norvegicus, UniProt P61169, S193A) (P61169 whole entry S193A): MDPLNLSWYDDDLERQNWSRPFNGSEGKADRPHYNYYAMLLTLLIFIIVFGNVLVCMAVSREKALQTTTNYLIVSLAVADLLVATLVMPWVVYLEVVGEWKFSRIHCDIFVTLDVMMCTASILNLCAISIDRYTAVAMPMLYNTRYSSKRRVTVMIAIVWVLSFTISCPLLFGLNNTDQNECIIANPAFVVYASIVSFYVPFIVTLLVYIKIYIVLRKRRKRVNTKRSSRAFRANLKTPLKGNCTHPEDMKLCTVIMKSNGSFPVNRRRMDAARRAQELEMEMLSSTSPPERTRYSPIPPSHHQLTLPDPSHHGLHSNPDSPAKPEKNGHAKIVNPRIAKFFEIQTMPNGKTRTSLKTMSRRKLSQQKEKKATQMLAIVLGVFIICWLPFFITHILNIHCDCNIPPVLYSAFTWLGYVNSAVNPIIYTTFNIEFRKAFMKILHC
Assay [4] addresses T1, D(2) dopamine receptor. Description: biochemical. It counts as cell-based, C6 glioma.
Assay [5] deals with D(2) dopamine receptor (Rattus norvegicus, UniProt P61169). Nature of the assay: biochemical. It is filed as cell-based, C6 glioma.
Chain of D(2) dopamine receptor (Rattus norvegicus, UniProt P61169) (P61169 whole entry): as the sequence (P61169 whole entry S193A) above, with A193S counted along it
The target in assay [6] is T1, D(2) dopamine receptor. Description: biochemical. It counts as cell-based, C6 glioma. This is another data set of the same source.
Assay [7] deals with T2, D(2) dopamine receptor. Nature of the assay: biochemical. It is filed as cell-based, C6 glioma.

Each structure is given as a SMILES string. pKd: −log10 of the molar value.

T1 sequence (P61169 whole entry S194A): as the sequence (P61169 whole entry S193A) above, with A193S, S194A counted along it
T2 sequence (P61169 whole entry S197A): as the sequence (P61169 whole entry S193A) above, with A193S, S197A counted along it

Turning to `CCCN1Cc2c(C)cccc2[C@@H]2c3cc(O)c(O)cc3CC[C@H]21`, the pKd was 6.40 in assay [1]; 6.15 in assay [2]; 5.89 in assay [3]; 5.89 in assay [4]; 6.52 in assay [5]; 6.52 in assay [5] (c6 glioma).

Consider `COc1cc(CCN)ccc1O`, for which the pKd in assay [6] is 4.06; in assay [7], 3.65; in assay [4], 3.60; in assay [5] it was 4.03.

For the molecule `N[C@@H]1CCc2cc(O)c(O)cc2C1`, the pKd in assay [6] is 6.35; in assay [7], 6.92; in assay [4], 4.77; in assay [5] it was 6.68.

Turning to `CN1C[C@H](C(N)=O)C=C2c3cccc4[nH]cc(c34)C[C@H]21`, the negative logarithm of the Kd (pKd) in assay [1] is 8.55; in assay [2] it was 9.00; in assay [3] it was 8.55; in assay [4] it was 8.74; in assay [5], 9.21; in assay [5] (c6 glioma) it was 9.21.

Turning to `CC(C)C[C@H]1C(=O)N2CCC[C@H]2[C@]2(O)O[C@](NC(=O)[C@@H]3C=C4c5cccc6[nH]c(Br)c(c56)C[C@H]4N(C)C3)(C(C)C)C(=O)N12` [BROMOCRIPTINE], the pKd in assay [6] was 7.77; in assay [7], 8.40; in assay [4], 8.10; in assay [5], 8.10.

For the molecule `CCN(CC)C(=O)N[C@H]1C=C2c3cccc4[nH]cc(c34)C[C@H]2N(C)C1` [LISURIDE], the pKd was 8.64 in assay [6], 9.40 in assay [7], 9.52 in assay [4] and 9.22 in assay [5].

In general, pKd refers to −log10 of the Kd, conventionally taken in molar units.
